Consider five compounds from ChEMBL document CHEMBL4819143, “Discovery of JMJD7 inhibitors with the aid of virtual screening and bioactivity evaluation” (Bioorg Med Chem Lett, 2021).

Assay [1] has as its target Bifunctional peptidase and (3S)-lysyl hydroxylase JMJD7 (Homo sapiens, UniProt P0C870). Briefly: Inhibition of N-terminal His-tagged human JMJD7 (1 to 316 residues) expressed in Escherichia coli BL21 (DE3) luciferase based succinate-gloTM JmjC demethylase/hydroxylase assay.
The test system of a further assay is SK-BR-3. Briefly: Cytotoxicity against human SK-BR-3 cells assessed as growth inhibition measured after 72 hrs by MTT assay. The settings on record: SK-BR-3, 72 h. (Tetrazolium dyes change colour on reduction, which living cells bring about.)
The test system of a further assay is HeLa. The assay can be described thus: Cytotoxicity against human HeLa cells assessed as growth inhibition measured after 72 hrs by MTT assay.
The test system of the next assay is T47D. The assay can be described thus: Cytotoxicity against human T47D cells assessed as growth inhibition measured after 72 hrs by MTT assay.
Another assay relates to BJ. The assay can be described thus: Cytotoxicity against human BJ cells assessed as growth inhibition measured after 72 hrs by MTT assay.
For another assay, the system named is SH-SY5Y. The assay can be described thus: Cytotoxicity against human SH-SY5Y cells assessed as growth inhibition measured after 72 hrs by MTT assay.
The next assay relates to Jurkat. The assay can be described thus: Cytotoxicity against human Jurkat cells assessed as growth inhibition measured after 72 hrs by MTT assay.

Sequence of Bifunctional peptidase and (3S)-lysyl hydroxylase JMJD7 (P0C870 whole entry, the tested form may be a part): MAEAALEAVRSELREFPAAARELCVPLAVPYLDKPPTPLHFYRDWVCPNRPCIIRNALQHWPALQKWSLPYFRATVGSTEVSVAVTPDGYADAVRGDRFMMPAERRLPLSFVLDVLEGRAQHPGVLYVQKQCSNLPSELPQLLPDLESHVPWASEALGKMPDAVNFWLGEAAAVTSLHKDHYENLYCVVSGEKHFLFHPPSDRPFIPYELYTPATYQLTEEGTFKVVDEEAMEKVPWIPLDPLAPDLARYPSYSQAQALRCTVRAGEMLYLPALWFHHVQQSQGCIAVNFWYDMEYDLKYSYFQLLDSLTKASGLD

As for `CCCNC(=O)c1ccc(-c2nc3ccccc3s2)s1`, the IC50 (commonly the midpoint of a concentration-inhibition curve) in assay [1] is 11 µM.

As to `COc1ccc(CCC(=O)Nc2ccccc2C(=O)O)cc1OC`, the concentration for half-maximal inhibition (IC50) in assay [1] amounted to 33.2 µM.

As to `O=C(Oc1ccc([N+](=O)[O-])c2cccnc12)c1ccc(Cl)cc1Cl`, the IC50 with SK-BR-3 was 13.3 µM; with HeLa, 16.1 µM; in the assay with T47D it was 9.4 µM; with BJ, > 100 µM; in the assay on SH-SY5Y it was > 100 µM; in the assay with Jurkat it was 15 µM.

In assay [1], `COc1cccc(-c2ccc(NC(=O)C3=C(C(=O)O)CCC3)c(F)c2)c1` [VIDOFLUDIMUS] returned an IC50 of 7.16 µM.

For the compound `Oc1c(C(Nc2ccccn2)c2ccccc2)ccc2cccnc12` (stereo not given), inhibition in assay [1] was half-maximal at 31.6 µM (IC50).
